From publication PMC10303200 (ACS Central Science, 2023) come the findings set out here.

What all share (type): binding
Assay [1] deals with T1, GAL-7 (Homo sapiens, UniProt P47929).
T1 construct: gene LGALS7; homodimer (monomer MW 14.94 kDa)
Briefly: Direct native ESI-MS of the GAL-7 homodimer with a mixture of ten glycans (G2, G5-G13), 200 mM ammonium acetate, pH 6.9. As to conditions: SD, n = 8; read-out: Kd (nMS), Table S4.

The target in assay [2] is T2, GAL-3C (Homo sapiens, UniProt P17931). Briefly: COIN-nMS with a mixture of ten glycans (G2, G5-G13), 200 mM ammonium acetate, pH 6.9. More on the design: gene LGALS3; C-terminal carbohydrate recognition domain fragment, residues 107-250. As to conditions: SD, n = 8; read-out: Kd (COIN-nMS), Table S3.
T2 sequence (P17931 107-250): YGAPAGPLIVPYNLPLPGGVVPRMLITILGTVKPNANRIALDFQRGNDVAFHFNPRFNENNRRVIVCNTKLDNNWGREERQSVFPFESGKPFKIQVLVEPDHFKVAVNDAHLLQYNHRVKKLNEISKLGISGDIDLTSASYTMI
In assay [3] the target is T2, GAL-3C. Briefly: Direct native ESI-MS with a mixture of ten glycans (G2, G5-G13), 200 mM ammonium acetate, pH 6.9. More on the design: gene LGALS3; C-terminal carbohydrate recognition domain fragment, residues 107-250. The following applies: SD, n = 8; read-out: Kd (nMS), Table S3.
The target of assay [4] is T1, GAL-7. Briefly: COIN-nMS of the GAL-7 homodimer with a mixture of ten glycans (G2, G5-G13), 200 mM ammonium acetate, pH 6.9. The following applies: SD, n = 8; read-out: Kd (COIN-nMS), Table S4.
Assay [5] has as its target T3, DC-SIGN CRD (Homo sapiens, UniProt Q9NNX6).
T3 sequence (Q9NNX6 250-404): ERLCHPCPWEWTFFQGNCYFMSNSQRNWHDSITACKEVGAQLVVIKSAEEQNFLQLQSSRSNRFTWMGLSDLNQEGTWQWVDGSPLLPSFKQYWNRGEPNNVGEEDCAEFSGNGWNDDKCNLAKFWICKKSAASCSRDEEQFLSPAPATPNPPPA
Briefly: Direct native ESI-MS (submicron emitters) with a mixture of ten glycans (G2, G5, G10, G14-G20), 200 mM ammonium acetate with 2.5 mM calcium salt, pH 7.4. More on the design: gene CD209; carbohydrate recognition domain, residues 250-404, MW 17 794 Da. As to conditions: SD, n = 6; read-out: Kd (nMS), Table S5.

Assay [6] deals with T3, DC-SIGN CRD. Briefly: COIN-nMS (submicron emitters) with a mixture of ten glycans (G2, G5, G10, G14-G20), 200 mM ammonium acetate with 2.5 mM calcium salt, pH 7.4. More on the design: gene CD209; carbohydrate recognition domain, residues 250-404, MW 17 794 Da. As to conditions: SD, n = 6; read-out: Kd (COIN-nMS), Table S5.
In assay [7] the target is MAA (Maackia amurensis agglutinin). Briefly: COIN-CaR-nMS. As to conditions: native and all α2-3-linked N-glycan natural libraries and purified 3SL, 3SLN; pH 6.9.
Assay [8] has as its target T3, DC-SIGN CRD. Briefly: COIN-nMS affinity measurement. Also on record: The carbohydrate recognition domain (CRD) of DC-SIGN (residues 250–404, MW 17 794 Da); made in house. As to conditions: glycans present as a mixture (G2, G5, G10, G14-G20); average of six measurements; pH 7.4; read-out: Kd (COIN-nMS).
For assay [9], the target named is T3, DC-SIGN CRD. Briefly: direct nMS affinity measurement. More on the design: The carbohydrate recognition domain (CRD) of DC-SIGN (residues 250–404, MW 17 794 Da); made in house. As to conditions: glycans present as a mixture (G2, G5, G10, G14-G20); pH 7.4.

T1 sequence (P47929 whole entry): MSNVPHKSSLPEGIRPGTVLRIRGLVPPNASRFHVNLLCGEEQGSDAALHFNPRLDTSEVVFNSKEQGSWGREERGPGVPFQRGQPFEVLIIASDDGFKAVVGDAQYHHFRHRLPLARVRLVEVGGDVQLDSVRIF

On to `CC(=O)N[C@H]1[C@@H](O[C@H]2[C@@H](O)[C@@H](CO)O[C@@H](O[C@H]3[C@H](O)[C@@H](NC(C)=O)C(O)O[C@@H]3CO)[C@@H]2O[C@@H]2O[C@@H](C)[C@@H](O)[C@@H](O)[C@@H]2O)O[C@H](CO)[C@H](O)[C@@H]1O` (stereo partly drawn) [G10, α-D-GalNAc(1→3)-[α-L-Fuc(1→2)]-β-D-Gal(1→4)-D-GlcNAc], for which the Kd turned out to be 731 µM on GAL-7 [1]; 10.9 µM on GAL-3C [2]; 17.9 µM at GAL-3C [3]; 437 µM at GAL-7 [4]; 6.01 mM at DC-SIGN CRD [5]; 2.92 mM at DC-SIGN CRD [6].
The compound `CC(=O)N[C@H]1[C@H](O[C@H]2[C@H](O)[C@@H](NC(C)=O)C(O)O[C@@H]2CO[C@@H]2O[C@@H](C)[C@@H](O)[C@@H](O)[C@@H]2O)O[C@H](CO)[C@@H](O[C@@H]2O[C@H](CO[C@H]3O[C@H](CO)[C@@H](O)[C@H](O)[C@@H]3O[C@@H]3O[C@H](CO)[C@@H](O[C@@H]4O[C@H](CO)[C@H](O)[C@H](O)[C@H]4O)[C@H](O)[C@H]3NC(C)=O)[C@@H](O)[C@H](O[C@H]3O[C@H](CO)[C@@H](O)[C@H](O)[C@@H]3O[C@@H]3O[C@H](CO)[C@@H](O[C@@H]4O[C@H](CO[C@]5(C(=O)O)C[C@H](O)[C@@H](NC(C)=O)[C@H]([C@H](O)[C@H](O)CO)O5)[C@H](O)[C@H](O)[C@H]4O)[C@H](O)[C@H]3NC(C)=O)[C@@H]2O)[C@@H]1O` (stereo partly drawn) [HexNAc4Hex5Fuc1NeuAc1] showed a Kd in [7] of 570 ± 160 nM.
Consider `OC[C@H]1O[C@H](OC[C@H]2O[C@H](OC[C@H]3OC(O)[C@@H](O)[C@@H](O[C@H]4O[C@H](CO)[C@@H](O)[C@H](O)[C@@H]4O[C@H]4O[C@H](CO)[C@@H](O)[C@H](O)[C@@H]4O)[C@@H]3O)[C@@H](O)[C@@H](O[C@H]3O[C@H](CO)[C@@H](O)[C@H](O)[C@@H]3O)[C@@H]2O)[C@@H](O)[C@@H](O)[C@@H]1O` (stereo partly drawn) [G16, α-D-Man-(1→3)[α-D-Man(1→6)]-α-D-Man(1→6)[α-D-Man(1→2)-α-D-Man-(1→3)]-α-D-Man], for which the Kd on DC-SIGN CRD [5] was determined as 0.81 mM; on DC-SIGN CRD [6] it was 0.56 mM.
`CC(=O)N[C@H]1[C@H](O[C@H]2[C@H](O)[C@@H](NC(C)=O)C(O)O[C@@H]2CO[C@@H]2O[C@@H](C)[C@@H](O)[C@@H](O)[C@@H]2O)O[C@H](CO)[C@@H](O[C@@H]2O[C@H](CO[C@H]3O[C@H](CO)[C@@H](O)[C@H](O)[C@@H]3O[C@@H]3O[C@H](CO)[C@@H](O[C@@H]4O[C@H](CO[C@]5(C(=O)O)C[C@H](O)[C@@H](NC(C)=O)[C@H]([C@H](O)[C@H](O)CO)O5)[C@H](O)[C@H](O)[C@H]4O)[C@H](O)[C@H]3NC(C)=O)[C@@H](O)[C@H](O[C@H]3O[C@H](CO)[C@@H](O)[C@H](O)[C@@H]3O[C@@H]3O[C@H](CO)[C@@H](O[C@@H]4O[C@H](CO[C@]5(C(=O)O)C[C@H](O)[C@@H](NC(C)=O)[C@H]([C@H](O)[C@H](O)CO)O5)[C@H](O)[C@H](O)[C@H]4O)[C@H](O)[C@H]3NC(C)=O)[C@@H]2O)[C@@H]1O` (stereo partly drawn) [HexNAc4Hex5Fuc1NeuAc2] registered a Kd in assay [7] of 390 ± 80 nM.
As to `OC[C@H]1O[C@H](OC[C@H]2O[C@H](OC[C@H]3OC(O)[C@@H](O)[C@@H](O)[C@@H]3O)[C@@H](O)[C@@H](O[C@H]3O[C@H](CO)[C@@H](O)[C@H](O)[C@@H]3O)[C@@H]2O)[C@@H](O)[C@@H](O)[C@@H]1O` (stereo partly drawn) [G19, oligomannose glycan G19], the Kd was 1.18 mM at DC-SIGN CRD [5] and 1.5 mM at DC-SIGN CRD [6].
Compound `CC(=O)N[C@H]1[C@H](O[C@H]2[C@H](O)[C@@H](NC(C)=O)C(O)O[C@@H]2CO)O[C@H](CO)[C@@H](O[C@@H]2O[C@H](CO[C@H]3O[C@H](CO)[C@@H](O)[C@H](O)[C@@H]3O[C@@H]3O[C@H](CO)[C@@H](O[C@@H]4O[C@H](CO[C@]5(C(=O)O)C[C@H](O)[C@@H](NC(=O)CO)[C@H]([C@H](O)[C@H](O)CO)O5)[C@H](O)[C@H](O)[C@H]4O)[C@H](O)[C@H]3NC(C)=O)[C@@H](O)[C@H](O[C@H]3O[C@H](CO)[C@@H](O)[C@H](O)[C@@H]3O[C@@H]3O[C@H](CO)[C@@H](O[C@@H]4O[C@H](CO[C@]5(C(=O)O)C[C@H](O)[C@@H](NC(=O)CO)[C@H]([C@H](O)[C@H](O)CO)O5)[C@H](O)[C@H](O)[C@H]4O)[C@H](O)[C@H]3NC(C)=O)[C@@H]2O)[C@@H]1O` (stereo partly drawn) [HexNAc4Hex5NeuGc2] displayed a Kd in assay [7] of 490 ± 200 nM.
`CC(=O)N[C@H]1[C@H](O[C@H]2[C@@H](O)[C@@H](CO)OC(O)[C@@H]2O)O[C@H](CO)[C@@H](O[C@@H]2O[C@@H](C)[C@@H](O)[C@@H](O)[C@@H]2O)[C@@H]1O[C@@H]1O[C@H](CO)[C@H](O)[C@H](O)[C@H]1O[C@@H]1O[C@@H](C)[C@@H](O)[C@@H](O)[C@@H]1O` (stereo partly drawn) [G17, blood group antigen G17]: the values for the Kd at DC-SIGN CRD [5] and at DC-SIGN CRD [6] were 0.62 mM and 0.55 mM, respectively.
With “α-D-Man-(1→2)-α-D-Man-(1→3)-[α-D-Man-(1→6)-[α-D-Man-(1→2)-α-D-Man-(1→3)]-α-D-Man [Glycan G15]”, the figures for the Kd at DC-SIGN CRD [8] and at DC-SIGN CRD [9] were 410 ± 40 µM and 390 ± 50 µM, respectively.
Turning to `CC(=O)N[C@H]1[C@H](O[C@H]2[C@H](O)[C@@H](NC(C)=O)C(O)O[C@@H]2CO)O[C@H](CO)[C@@H](O[C@@H]2O[C@H](CO[C@H]3O[C@H](CO)[C@@H](O)[C@H](O)[C@@H]3O[C@@H]3O[C@H](CO)[C@@H](O[C@@H]4O[C@H](CO[C@]5(C(=O)O)C[C@H](O)[C@@H](NC(C)=O)[C@H]([C@H](O)[C@H](O)CO)O5)[C@H](O)[C@H](O)[C@H]4O)[C@H](O)[C@H]3NC(C)=O)[C@@H](O)[C@H](O[C@H]3O[C@H](CO)[C@@H](O)[C@H](O)[C@@H]3O[C@@H]3O[C@H](CO)[C@@H](O[C@@H]4O[C@H](CO[C@]5(C(=O)O)C[C@H](O)[C@@H](NC(C)=O)[C@H]([C@H](O)[C@H](O)CO)O5)[C@H](O)[C@H](O)[C@H]4O)[C@H](O)[C@H]3NC(C)=O)[C@@H]2O)[C@@H]1O` (stereo partly drawn) [HexNAc4Hex5NeuAc2], the Kd in assay [7] was determined as 520 ± 200 nM.
Regarding `OC[C@H]1O[C@H](O[C@@H]2[C@H](O)[C@@H](OC[C@H]3OC(O)[C@@H](O)[C@@H](O[C@H]4O[C@H](CO)[C@@H](O)[C@H](O)[C@@H]4O[C@H]4O[C@H](CO)[C@@H](O)[C@H](O)[C@@H]4O[C@H]4O[C@H](CO)[C@@H](O)[C@H](O)[C@@H]4O)[C@@H]3O)O[C@H](CO[C@H]3O[C@H](CO)[C@@H](O)[C@H](O)[C@@H]3O[C@H]3O[C@H](CO)[C@@H](O)[C@H](O)[C@@H]3O)[C@H]2O)[C@@H](O)[C@@H](O)[C@@H]1O` (stereo partly drawn) [G14, α-D-Man-(1→2)-α-D-Man-(1→6)-[α-D-Man-(1→3)]-α-D-Man-(1→6)-[α-D-Man-(1→2)-α-D-Man-(1→2)-α-D-Man-(1→3)]-α-D-Man], the Kd at DC-SIGN CRD [5] came out at 0.27 mM; on DC-SIGN CRD [6] it was 0.26 mM.
In the case of `OC[C@H]1O[C@H](O[C@H]2[C@H](O)[C@@H](O)[C@@H](O[C@H]3[C@H](O)[C@@H](O)[C@@H](O[C@H]4[C@H](O)[C@@H](O)[C@@H](O[C@H]5[C@H](O)[C@@H](O)C(O)O[C@@H]5CO)O[C@@H]4CO)O[C@@H]3CO)O[C@@H]2CO)[C@H](O)[C@@H](O)[C@@H]1O` (stereo partly drawn) [G20, maltopentaose], the Kd on DC-SIGN CRD [5] amounted to 2.41 mM; at DC-SIGN CRD [6], 1.83 mM.
Take `CC(=O)N[C@H]1[C@H](O[C@H]2[C@@H](O)[C@@H](CO)O[C@@H](O[C@H]3[C@H](O)[C@@H](O)C(O)O[C@@H]3CO)[C@@H]2O)O[C@H](CO)[C@@H](O[C@@H]2O[C@H](CO)[C@H](O)[C@H](O[C@H]3O[C@H](CO)[C@H](O)[C@H](O)[C@H]3O)[C@H]2O[C@@H]2O[C@@H](C)[C@@H](O)[C@@H](O)[C@@H]2O)[C@@H]1O` (stereo partly drawn) [G18, blood group antigen G18]: the values for the Kd on DC-SIGN CRD [5] and on DC-SIGN CRD [6] were 3.33 mM and 1.87 mM, respectively.

As usually defined, the Kd is the concentration at which binding is half-saturated.
